In patent publication US9834542B2, “LXR modulators” (BRISTOL-MYERS SQUIBB COMPANY, priority 2013, dated 2017):

Target: T1, LXRβ (Homo sapiens, UniProt P55055)
T1 construct: Co-transfection expression plasmids, comprising full-length LXRα (pCMX-h LXRα[…] or LXRβ (pCMX-hLXRβ)); expressed in transfected cells; host or cells: CV-1 African Green Monkey Kidney Cells
T1 sequence (P55055 1-460): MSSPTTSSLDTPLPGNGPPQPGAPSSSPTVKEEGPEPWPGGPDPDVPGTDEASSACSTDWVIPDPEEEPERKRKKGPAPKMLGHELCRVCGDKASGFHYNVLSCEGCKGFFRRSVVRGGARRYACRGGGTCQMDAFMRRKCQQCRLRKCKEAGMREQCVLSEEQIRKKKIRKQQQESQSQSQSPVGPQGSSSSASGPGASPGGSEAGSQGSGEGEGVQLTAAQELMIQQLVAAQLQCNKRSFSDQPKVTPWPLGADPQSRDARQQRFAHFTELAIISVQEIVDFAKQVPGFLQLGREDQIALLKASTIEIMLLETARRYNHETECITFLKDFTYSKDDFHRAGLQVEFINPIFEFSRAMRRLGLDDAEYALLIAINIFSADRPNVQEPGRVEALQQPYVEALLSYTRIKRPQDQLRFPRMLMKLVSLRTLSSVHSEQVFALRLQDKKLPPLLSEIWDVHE
T1 sequence (P19793 1-462 partner): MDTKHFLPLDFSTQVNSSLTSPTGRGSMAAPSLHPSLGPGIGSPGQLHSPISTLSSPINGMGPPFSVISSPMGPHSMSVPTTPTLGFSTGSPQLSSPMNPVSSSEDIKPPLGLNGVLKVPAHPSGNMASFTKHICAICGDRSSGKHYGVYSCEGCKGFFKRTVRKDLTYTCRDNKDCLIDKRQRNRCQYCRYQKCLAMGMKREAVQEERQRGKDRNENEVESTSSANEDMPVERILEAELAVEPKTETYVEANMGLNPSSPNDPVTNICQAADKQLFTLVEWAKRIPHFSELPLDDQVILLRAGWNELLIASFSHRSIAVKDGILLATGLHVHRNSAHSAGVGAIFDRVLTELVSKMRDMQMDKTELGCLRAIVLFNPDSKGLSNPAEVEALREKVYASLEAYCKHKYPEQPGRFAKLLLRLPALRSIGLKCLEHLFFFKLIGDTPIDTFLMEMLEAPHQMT
Experiment: Co-transfection assay (LXRE luciferase reporter), LXRβ
Assay type: cell-based
Conditions: for EC50: CV-1 cells transfected with pCMX-hLXRβ and LXREx1-Tk-Luciferase, 20 hours incubation; for Emax: LXRβ co-transfection, relative to high control 1-(2,4-difluorobenzyl)-2-oxo-6-(4-phenoxyphenyl)-4-(trifluoromethyl)-1,2-dihydropyridine-3-carbonitrile, read-out: % Efficacy
Outline: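 CV-1 cells transiently co-transfected with full-length human LXRβ (or LXRα), LXREx1-Tk-luciferase reporter and β-galactosidase control; compound added (10 μM final in single-point, 11-point ½-log curves, ≤0.5% DMSO) for 20 h at 37 °C. Luciferase read; EC50 from four-parameter fit, efficacy relative to reference agonist high control.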

SMILES | EC50 [µM] | Emax [%]
Cc1nc(-c2cc(-c3cc(F)c(CO)c(S(C)(=O)=O)c3)ccc2-n2cc(C(F)(F)F)nc2C)c(-c2cc(F)cc(F)c2)o1 [Example 448, (3′-(5-(3,5-difluorophenyl)-2-methyloxazol-4-yl)-3-fluoro-4′-(2-methyl-4-(trifluoromethyl)-1H-imidazol-1-yl)-5-(methylsulfonyl)biphenyl-4-yl)methanol] | 0.096 | 58
COCCc1nc(-c2cc(-c3cc(F)c(CO)c(S(C)(=O)=O)c3)ccc2-n2cc(C(F)(F)F)nc2C)c(-c2ccc(OC(F)(F)F)cc2)o1 [Example 527, (3-fluoro-3′-(2-(2-methoxyethyl)-5-(4-(trifluoromethoxy)phenyl)oxazol-4-yl)-4′-(2-methyl-4-(trifluoromethyl)-1H-imidazol-1-yl)-5-(meththsulfonyl)-[1,1′-biphenyl]-4-yl)methanol] | 0.107 | 54
Cc1nc(C(F)(F)F)cn1-c1ccc(-c2cccc(S(C)(=O)=O)c2)cc1-c1nc(CC(=O)O)oc1-c1ccc(OC(F)(F)F)cc1 [Example 537, 2-(4-(4-(2-methyl-4-(trifluoromethyl)-1H-imidazol-1-yl)-3′-(methylsulfonyl)-[1,1′-biphenyl]-3-yl)-5-(4-(trifluoromethoxy)phenyl)oxazol-2-yl)acetic acid] | 0.661 | 100
Cc1nc(C(F)(F)F)cn1-c1ccc(-c2cc(F)c(CO)c(S(C)(=O)=O)c2)cc1-n1nncc1C(=O)c1ccc(Cl)cc1 [Example 140, (4-chlorophenyl)(1-{3′-fluoro-4′-(hydroxymethyl)-5′-(methylsulfonyl)-4-[2-methyl-4-(trifluoromethyl)-1H-imidazol-1-yl]biphenyl-3-yl}-1H-1,2,3-triazol-5-yl)methanone] | 0.383 | 64
Cc1nc(C(F)F)cn1-c1ccc(-c2cccc(S(C)(=O)=O)c2)cc1-n1nncc1-c1ccccc1 [Example 171, 1-{4-[4-(difluoromethyl)-2-methyl-1H-imidazol-1-yl]-3′-(methylsulfonyl)biphenyl-3-yl}-5-phenyl-1H-1,2,3-triazole] | 3.09 | 60
Cc1nc(C(F)(F)F)cn1-c1ccc(-c2cccc(C(C)(C)C(N)=O)c2)cc1-n1nncc1Cc1ccc(Cl)cc1 [Example 119, 2-(3′-{5-[(4-chlorophenyl)methyl]-1H-1,2,3-triazol-1-yl}-4′-[2-methyl-4-(trifluoromethyl)-1H-imidazol-1-yl]biphenyl-3-yl)-2-methylpropanamide] | 0.82 | 85
Cc1nc(C(N)=O)cn1-c1ccc(-c2cccc(S(C)(=O)=O)c2)cc1-c1nc(C2CC2)oc1-c1ccc2c(c1)OC(F)(F)O2 [Example 489, 1-(3-(2-cyclopropyl-5-(2,2-difluorobenzo[d][1,3]dioxol-5-yl)oxazol-4-yl)-3′-(methylsulfonyl)biphenyl-4-yl)-2-methyl-1H-imidazole-4-carboxamide] | 1.08 | 35
Cc1nc(C(F)(F)F)cn1-c1ccc(-c2cccc(S(C)(=O)=O)c2)cc1-c1oc(CCO)nc1-c1ccc(Cl)cc1 [Example 618, 2-(4-(4-chlorophenyl)-5-(4-(2-methyl-4-(trifluoromethyl)-1H-imidazol-1-yl)-3′-(methylsulfonyl)-[1,1′-biphenyl]-3-yl)oxazol-2-yl)ethanol] | 0.783 | 66
Cc1nc(Cl)cn1-c1ccc(-c2cc(F)c(CO)c(S(C)(=O)=O)c2)cc1-n1nncc1-c1ccc(OC(F)(F)F)cc1 [Example 147, [4′-(4-chloro-2-methyl-1H-imidazol-1-yl)-3-fluoro-5-(methylsulfonyl)-3′-(5-{4-[(trifluoromethyl)oxy]phenyl}-1H-1,2,3-triazol-1-yl)biphenyl-4-yl]methanol] | 0.413 | 76
Cc1nc(C(F)(F)F)cn1-c1ccc(-c2cc(F)c(CO)c(S(C)(=O)=O)c2)cc1-c1nc(CC(C)O)oc1-c1ccc(OC(F)(F)F)cc1 (centres unmarked) [Example 534, 1-(4-(3′-fluoro-4′-(hydroxymethyl)-4-(2-methyl-4-(trifluoromethyl)-1H-imidazol-1-yl)-5′-(methylsulfonyl)-[1,1′-biphenyl]-3-yl)-5-(4-(trifluoromethoxy)phenyl)oxazol-2-yl)propan-2-ol] | 0.197 | 55
Cc1nc(C(F)(F)F)cn1-c1ccc(-c2cccc(S(C)(=O)=O)c2)cc1-c1ncoc1-c1ccc(Cl)cc1 [Example 354, 5-(4-chlorophenyl)-4-{3′-(methylsulfonyl)-4-[2-methyl-4-(trifluoromethyl)-1H-imidazol-1-yl]biphenyl-3-yl}-1,3-oxazole] | 0.425 | 77
Cc1nc(C(F)(F)F)cn1-c1ccc(-c2cc(F)c(CO)c(S(C)(=O)=O)c2)cc1-c1nc(C(F)(F)F)cn1-c1ccc2c(c1)OC(F)(F)O2 [Example 638, (3′-(1-(2,2-difluorobenzo[d][1,3]dioxol-5-yl)-4-(trifluoromethyl)-1H-imidazol-2-yl)-3-fluoro-4′-(2-methyl-4-(trifluoromethyl)-1H-imidazol-1-yl)-5-(methylsulfonyl)biphenyl-4-yl)methanol] | 0.143 | 79
CNS(=O)(=O)c1cccc(-c2cc(F)c(-n3cc(C(F)(F)F)nc3C)c(-n3nncc3-c3ccc(OC(F)(F)F)cc3)c2)c1 [Example 205, 3′-fluoro-N-methyl-4′-[2-methyl-4-(trifluoromethyl)-1H-imidazol-1-yl]-5′-(5-{4-[(trifluoromethyl)oxy]phenyl}-1H-1,2,3-triazol-1-yl)biphenyl-3-sulfonamide] | 0.111 | 85
Cc1nc(C(F)(F)F)cn1-c1ccc(-c2cccc(S(C)(=O)=O)c2)cc1-n1nncc1-c1ccc(OC(F)(F)F)cc1F [Example 61, 5-{2-fluoro-4-[(trifluoromethyl)oxy]phenyl}-1-{3′-(methylsulfonyl)-4-[2-methyl-4-(trifluoromethyl)-1H-imidazol-1-yl]biphenyl-3-yl}-1H-1,2,3-triazole] | 0.265 | 87
Cc1nc(-c2cc(-c3cc(F)c(CO)c(S(C)(=O)=O)c3)ccc2-n2cc(C(F)(F)F)nc2C)c(-c2cccc(Cl)n2)o1 [Example 427, (3′-(5-(6-chloropyridin-2-yl)-2-methyloxazol-4-yl)-3-fluoro-4′-(2-methyl-4-(trifluoromethyl)-1H-imidazol-1-yl)-5-(methylsulfonyl)biphenyl-4-yl)methanol] | 0.143 | 63
Cc1nc(C(F)(F)F)cn1-c1ccc(-c2cccc(S(C)(=O)=O)c2)cc1-c1oc(CCO)nc1-c1ccc2c(c1)OC(F)(F)O2 [Example 622, 2-(4-(2,2-difluorobenzo[d][1,3]dioxol-5-yl)-5-(4-(2-methyl-4-(trifluoromethyl)-1H-imidazol-1-yl)-3′-(methylsulfonyl)-[1,1′-biphenyl]-3-yl)oxazol-2-yl)ethanol] | 0.41 | 85
Cc1nc(C(F)(F)F)cn1-c1ccc(-c2cccc(S(C)(=O)=O)c2)cc1-n1nncc1-c1ccc(C#N)cc1 [Example 47, 4-(1-{3′-(methylsulfonyl)-4-[2-methyl-4-(trifluoromethyl)-1H-imidazol-1-yl]biphenyl-3-yl}-1H-1,2,3-triazol-5-yl)benzonitrile] | 2.54 | 64
Cc1nc(-c2cc(-c3cccc(S(C)(=O)=O)c3)ccc2-n2cc(C(F)(F)F)nc2C)c(-c2ccc(OC(F)F)c(OCC3CC3)c2)o1 [Example 382, 5-(3-(cyclopropylmethoxy)-4-(difluoromethoxy)phenyl)-2-methyl-4-(4-(2-methyl-4-(trifluoromethyl)-1H-imidazol-1-yl)-3′-(methylsulfonyl)biphenyl-3-yl)oxazole] | 0.057 | 62
Cc1nc(C(F)(F)F)cn1-c1ccc(-c2cc(F)c(CO)c(S(C)(=O)=O)c2)cc1-n1nncc1-c1ccc2c(c1)OC(F)(F)O2 [Example 52, {3′-[5-(2,2-difluoro-1,3-benzodioxol-5-yl)-1H-1,2,3-triazol-1-yl]-3-fluoro-5-(methylsulfonyl)-4′-[2-methyl-4-(trifluoromethyl)-1H-imidazol-1-yl]biphenyl-4-yl}methanol] | 0.172 | 82
